Reference: patent US11358965B2, “EGFR dimer disruptors and use of the same” (THE REGENTS OF THE UNIVERSITY OF MICHIGAN, priority 2018, dated 2022)

Legend:
cells = assay: Cell Titer Blue % cell viable (24 hrs); type: cell-based; settings: 24 h, Conc 15 μM
Protocol: The viability of cells upon treatment was assessed by CellTiter-Blue® reagent following the manufacturer's protocol in RKO, UM10B, UM1, MCR5, and UMCC92 cells. Briefly, 10,000 cells were plated in 96-well plate in quadruplets. One day after seeding, cells were treated with a range of concentrations (0.1 to 30 micromolar). […] Only the viable cells convert the redox dye (reszurin) into a fluorescent product (resofurin). The emission of fluorescence (excitation 560 nm) was measured at […]. The IC50 value was calculated as the mean concentration of compounds required to inhibit cell proliferation as measured by the fluorescence at […] by 50 percent compared to the vehicle-treated controls.

RKO cells = assay: Clonogenic IC50, RKO; type: cell-based; settings: Homo sapiens
UM1 cells = assay: Clonogenic IC50, UM1; type: cell-based
UMCC92 cells = assay: Clonogenic IC50, UMCC92; type: cell-based
[1] = tested on: Ba/F3-AZR cells (L858R+T790M+C797S-EGFR); assay: Osimertinib resistant Ba/F3-AZR ascites tumor model; type: in vivo, nude mice; settings: mouse, in vivo, 30 mg/kg

Row | IC50 (RKO cells) [µM] | IC50 (UM1 cells) [µM] | IC50 (UMCC92 cells) [µM] | Compound | viability at 15 µM (cells) [%] | survival [1]
1 | 11.6 | 0.9 | 34 | COc1ccc(C2=NC3(CCN(C)CC3)N(CC(=O)Nc3ccc(OC)c(Cl)c3)C2=O)cc1 [Compound 5, N-(3-chloro-4-methoxyphenyl)-2-(3-(4-methoxyphenyl)-8-methyl-2-oxo-1,4,8-triazaspiro[4.5]dec-3-en-1-yl)acetamide] | 60 | –
2 | – | – | – | C=CC(=O)Nc1cc(Nc2nccc(-c3cn(C)c4ccccc34)n2)c(OC)cc1N(C)CCN(C)C [osimertinib, reference compound] | – | no difference
